In patent publication US11851440B2, “Modulators of eukaryotic initiation factor 2B, compositions and methods” (Denali Therapeutics Inc., priority 2017, dated 2023):

test system: ISR pathway (ATF4 translation); assay: ATF4 Nano Luciferase reporter integrated stress response (ISR) assay in H4 ATF4-NLuc cells; details: Homo sapiens, H4 ATF4-NLuc (clone 17) cells; compound 30 minutes, then 50 um sodium arsenite for 6 hours; luminescence readout

Row | IC50 [µM] | SMILES
1 | 0.0081 | O=C(NC12CC(c3nnc([C@H]4C[C@@H](OC(F)(F)F)C4)o3)(C1)C2)c1ccc2cc(C(F)(F)F)ccc2n1 [Example 166, N-[1-[5-[3-cis-(trifluoromethoxy)cyclobutyl]-1,3,4-oxadiazol-2-yl]-3-bicyclo[1.1.1]pentanyl]-6-(trifluoromethyl)quinoline-2-carboxamide]
2 | 0.0038 | O=C(NC12CC(c3nnc([C@H]4C[C@@H](OC(F)(F)F)C4)o3)(C1)C2)c1ccc2cc(Cl)ccc2n1 [Example 169]
3 | 0.0439 | O=C(NC12CC(c3nnc([C@H]4C[C@@H](OC(F)(F)F)C4)o3)(C1)C2)c1ccc2cc(Cl)cnc2c1 [Example 167, 3-chloro-N-[1-[5-[3-cis-(trifluoromethoxy)cyclobutyl]-1,3,4-oxadiazol-2-yl]-3-bicyclo[1.1.1]pentanyl]quinoline-7-carboxamide]

same assay, conditions: Homo sapiens, read-out: Activity (IC50), H4 ATF4-NLuc (clone 17) cells; compound 30 minutes, then 50 um sodium arsenite for 6 hours; luminescence readout

Row | SMILES | IC50 [µM]
4 | O=C(NC12CC(c3nnc([C@H]4C[C@@H](OC(F)(F)F)C4)o3)(C1)C2)c1cc(C2CC2)on1 [Example 98, 5-cyclopropyl-N-[3-[5-[3-cis-(trifluoromethoxy)cyclobutyl]-1,3,4-oxadiazol-2-yl]-1-bicyclo[1.1.1]pentanyl]isoxazole-3-carboxamide] | 1 to 10
5 | O=C(CO[C@H]1C[C@@H](OC(F)(F)F)C1)NC12CC(c3cnn(-c4ccc(Cl)c(F)c4)n3)(C1)C2 [Example 78, N-[3-[2-(4-chloro-3-fluoro-phenyl)triazol-4-yl]-1-bicyclo[1.1.1]pentanyl]-2-[3-cis-(trifluoromethoxy)cyclobutoxy]acetamide] | < 1
6 | O=C(COc1ccc(Cl)cc1)NC12CC(c3nnc([C@H]4C[C@@H](O)C4)o3)(C1)C2 [Example 261] | 1 to 10
7 | O=C(COC1CCC1)NC12CC(c3nnc(-c4ccc(Cl)c(F)c4)o3)(C1)C2 [Example 42, N-[1-[5-(4-chloro-3-fluoro-phenyl)-1,3,4-oxadiazol-2-yl]-3-bicyclo[1.1.1]pentanyl]-2-(cyclobutoxy)acetamide] | 1 to 10
8 | O=C(CO[C@H]1C[C@@H](OC(F)(F)F)C1)NC12CC(n3cnc(-c4cnc(C(F)(F)F)nc4)c3)(C1)C2 [Example 231] | < 1
9 | O=C(CO[C@H]1C[C@@H](OC(F)(F)F)C1)NC12CC(c3nnc(C4CC(COC(F)(F)F)C4)o3)(C1)C2 (stereo partly drawn) [Example 107, 2-[3-cis-(trifluoromethoxy)cyclobutoxy]-N-[3-[5-[3-trans-(trifluoromethoxymethyl)cyclobutyl]-1,3,4-oxadiazol-2-yl]-1-bicyclo[1.1.1]pentanyl]acetamide] | < 1
10 | O=C(NC12CC(c3nnc([C@H]4C[C@@H](OC(F)(F)F)C4)o3)(C1)C2)c1nc2ccc(Cl)cc2s1 [Example 192] | < 1
11 | O=C(CC(O)c1ccc(Cl)cc1)NC12CC(c3nnc([C@H]4C[C@@H](OC(F)(F)F)C4)o3)(C1)C2 (stereo partly drawn) [Example 257] | < 1
12 | O=C(COc1ccc(Cl)c(F)c1)NC12CC(N3CC(C4CCC4)OC3=O)(C1)C2 (stereo not drawn) [Example 216] | < 1
13 | O=C(COc1ccc(Cl)c(F)c1)NC12CC(N3CC(COC(F)(F)F)CC3=O)(C1)C2 (stereo not drawn) [Example 221] | < 1
14 | O=C(CO[C@H]1C[C@@H](OC(F)(F)F)C1)NC12CC(n3cc(-c4ccc(Cl)cc4)oc3=O)(C1)C2 [Example 198] | < 1
15 | O=C(CO[C@H]1C[C@@H](COC(F)(F)F)C1)NC12CC(c3nnc([C@H]4C[C@@H](OC(F)(F)F)C4)o3)(C1)C2 [Example 89, N-[3-[5-[3-cis-(trifluoromethoxy)cyclobutyl]-1,3,4-oxadiazol-2-yl]-1-bicyclo[1.1.1]pentanyl]-2-[3-cis-(trifluoromethoxymethyl)cyclobutoxy]acetamide] | < 1
16 | O=C(COc1ccc(Cl)c(F)c1)NC12CC(c3nnc(C4CC4(F)F)o3)(C1)C2 (stereo not drawn) [Example 18, 2-(4-chloro-3-fluoro-phenoxy)-N-[3-[5-(2,2-difluorocyclopropyl)-1,3,4-oxadiazol-2-yl]-1-bicyclo[1.1.1]pentanyl]acetamide] | < 1
17 | O=C(NC12CC(c3nnc([C@H]4C[C@@H](OC(F)(F)F)C4)o3)(C1)C2)c1cc2cccn2cn1 [Example 101, N-[3-[5-[3-cis-(trifluoromethoxy)cyclobutyl]-1,3,4-oxadiazol-2-yl]-1-bicyclo[1.1.1]pentanyl]pyrrolo[1,2-c]pyrimidine-3-carboxamide] | 1 to 10
18 | O=C(COc1ccc(Cl)c(F)c1)NC12CC(NC(=O)OC[C@H]3C[C@H](OC(F)(F)F)C3)(C1)C2 [Example 238] | < 1
19 | O=C(COc1ccc(Cl)c(F)c1)NC12CC(c3cc(C4CCC4)on3)(C1)C2 [Example 24, 2-(4-chloro-3-fluorophenoxy)-N-(3-(5-cyclobutylisoxazol-3-yl)bicyclo[1.1.1]pentan-1-yl)acetamide] | < 1
20 | O=C(COc1ccc(Cl)c(F)c1)NC12CC(c3nnc(C4(F)CN(CC(F)(F)F)C4)o3)(C1)C2 [Example 93, 2-(4-chloro-3-fluoro-phenoxy)-N-[3-[5-[3-fluoro-1-(2,2,2-trifluoroethyl)azetidin-3-yl]-1,3,4-oxadiazol-2-yl]-1-bicyclo[1.1.1]pentanyl]acetamide] | < 1
21 | O=C(NC12CC(c3nnc([C@H]4C[C@@H](OC(F)(F)F)C4)o3)(C1)C2)c1cn2cc(Cl)ccc2n1 [Example 103, 6-chloro-N-[3-[5-[3-cis-(trifluoromethoxy)cyclobutyl]-1,3,4-oxadiazol-2-yl]-1-bicyclo[1.1.1]pentanyl]imidazo[1,2-a]pyridine-2-carboxamide] | < 1
22 | O=C(COc1ccc(Cl)c(F)c1)NC12CC(c3cn(C4CC(O)C4)nn3)(C1)C2 (stereo not drawn) [Example 57] | 1 to 10
23 | O=C(COc1ccc(Cl)c(F)c1)NC12CC(n3cnc(CC4CCC4)c3)(C1)C2 [Example 48] | < 1
24 | O=C(COc1ccc(Cl)c(F)c1)NC12CC(c3nnc(CC4CC4)o3)(C1)C2 [Example 11, 2-(4-chloro-3-fluoro-phenoxy)-N-[1-[5-(cyclopropylmethyl)-1,3,4-oxadiazol-2-yl]-3-bicyclo[1.1.1]pentanyl]acetamide] | < 1

More lines, now with the values ahead:

Row | IC50 [µM] | SMILES
25 | < 1 | O=C(NC12CC(c3nnc([C@H]4C[C@@H](OC(F)(F)F)C4)o3)(C1)C2)c1ccc(OC(F)(F)F)cn1 [Example 164]
26 | < 1 | O=C(NC12CC(c3nnc([C@H]4C[C@@H](OC(F)(F)F)C4)o3)(C1)C2)c1ccc2cc(C(F)(F)F)ccc2n1 [Example 166, N-[1-[5-[3-cis-(trifluoromethoxy)cyclobutyl]-1,3,4-oxadiazol-2-yl]-3-bicyclo[1.1.1]pentanyl]-6-(trifluoromethyl)quinoline-2-carboxamide]
27 | < 1 | O=C(COc1ccc(Cl)c(F)c1)NC12CC(c3nnc([C@H]4C[C@@H]4C(F)F)o3)(C1)C2 (single isomer, unassigned) [Example 84, 2-(4-chloro-3-fluoro-phenoxy)-N-[3-[5-[2-trans-(difluoromethyl)cyclopropyl]-1,3,4-oxadiazol-2-yl]-1-bicyclo[1.1.1]pentanyl]acetamide]
28 | < 1 | O=C(COc1ccc(F)c(F)c1)NC12CC(n3cnc([C@H]4C[C@@H](OC(F)(F)F)C4)c3)(C1)C2 [Example 143]
29 | < 1 | CC(COCC(=O)NC12CC(n3cnc(-c4ccc(Cl)c(F)c4)c3)(C1)C2)OC(F)(F)F (stereo not drawn) [Example 274]
30 | < 1 | O=C(COc1ccc(Cl)cc1)NC12CC(N3CC(C4CCC4)=CC3=O)(C1)C2 [Example 214]
31 | < 1 | Cc1nnc(C23CC(NC(=O)COc4ccc(Cl)c(F)c4)(C2)C3)o1 [Example 40, 2-(4-chloro-3-fluoro-phenoxy)-N-[1-(5-methyl-1,3,4-oxadiazol-2-yl)-3-bicyclo[1.1.1]pentanyl]acetamide]
32 | < 1 | O=C(NC12CC(c3nnc([C@H]4C[C@@H](OC(F)(F)F)C4)o3)(C1)C2)c1ccc2cc(Cl)ccc2n1 [Example 169]
33 | < 1 | O=C(NC12CC(c3nnc([C@H]4C[C@@H](OC(F)(F)F)C4)o3)(C1)C2)c1ccc2cc(Cl)cnc2c1 [Example 167, 3-chloro-N-[1-[5-[3-cis-(trifluoromethoxy)cyclobutyl]-1,3,4-oxadiazol-2-yl]-3-bicyclo[1.1.1]pentanyl]quinoline-7-carboxamide]
